From patent US12628822B2, “Plant pathogen defence elicitors” (UNIVERSITÉ LIBRE DE BRUXELLES, priority 2020, dated 2026)

Test system: Arabidopsis transcriptome
Test: cDNA microarray analysis of early transcriptomic changes in Arabidopsis seedlings
Assay type: in vivo, Arabidopsis thaliana
Procedure: Arabidopsis thaliana Columbia (Col-0) was the accession used for all the experiments. Seeds were surface sterilised by subsequent treatment with 50% v/v Et-OH and 3% bleach solution in agitation for 5 and 10 min, respectively. Seeds were then washed three times with distilled water and stratified for 3 days at 4° C. in the dark. For qPCR analysis and microarray experiments, seeds were sown on square petri dishes ([…]) containing half strength Murashige and Skoog (MS) salt, 2.5 mM MES, 1% w/v sucrose and 0.8% w/v plant agar. The experiments were performed using 14-day old seedlings grown vertically in a controlled growth cabinet with short day conditions ( 8/16 h light/dark; 100 μmol photons m^−2 s^−1) at 22±0.5° C. Treatments were performed by applying 40-50 μl of fresh-prepared and filtered solution per seedling.
For RNA extraction, 14-day old leaves from ten independent plants were collected at the indicated time point after treatments, pooled and frozen in liquid nitrogen. Total RNA was extracted from 100 mg of ground-frozen samples using the Maxwell® LEV Plant RNA Kit (Promega, Madison, WI, USA) and the RNA integrity was determined through NanoDrop 2000 UV-Vis Spectrophotometer (Thermo Scientific, Loughborough, UK). First-strand cDNA was synthesized by using SOLIScript® RT cDNA synthesis MIX (Solis Biodyne, Tartu, Estonia) and qPCRs were performed using SYBR® Selected MasterMix 2× (Applied Biosystems, Thermo Fisher Scientific, Waltham, USA), following the manufacturers' protocols. The cycling conditions consisted of an initial 7 min at 95° C., followed by 40 two-step cycles at 95° C. for 5 s and at 60° C. for 30 s. Melting curve analysis was performed after cycle completion to validate amplicon identity. Relative expression levels were calculated following the standard curve-based method (Larionov et al. A standard curve based method for relative real time PCR data processing, BMC Bioinformatics. 2005, vol. 6, 1) by using ACTIN as reference. Gene-specific primers used in this work are indicated below.
RNA sample preparation for microarray hybridization was carried out as described in the Applied Biosystems™ GeneChip™ Whole Transcript (WT) PLUS Reagent Kit User Guide (Thermo Fisher Scientific, Waltham, MA, USA). Briefly, 200 ng of total RNA was used to generate double-stranded cDNA. Twelve μg of subsequently synthesized cRNA were purified and reverse transcribed into single-stranded (ss)cDNA, where unnatural dUTP residues were incorporated. Purified and labelled sscDNAs were hybridised to Arabidopsis Gene 1.0 ST arrays (Affymetrix, Santa Clara, CA, USA) and the fluorescent signals were measured with an Applied Biosystems™ GeneChip Scanner 3000 7 G System. Sample processing was performed at a Genomics Core Facility, “KFB—Center of Excellence for Fluorescent Bioanalytics” (Regensburg, Germany).
Normalised probe set signals in log2 scale were calculated by using the RMA algorithm. Average linkage hierarchical clusters of differentially expressed genes were generated by using Cluster 3.0 and visualized by java TreeView.
In Arabidopsis, the DAMPs-dependent elicitation of PTI is known to be accompanied by a deep immune gene transcriptional reprogramming. […] The transcriptomic analysis was carried out by using Arabidopsis 1.0 ST microarray chip (Affymetrix, Santa Clara, CA, USA) and Differentially Expressed Genes (DEGs) were selected using two criteria: log2 expression ratios ≥1.5-fold or […] and Student's t-test p-value≤0.05.

[1] = 100 μM, 1 h, 14-day old Arabidopsis plants
[2] = 100 μM, 1 h, Col-0 plants, vs control

AT3G26210 cytochrome P450 71B23 gene expression [2]: 1.35 fold change
AT4G22710 cytochrome P450, family 706, subfamily A, polypeptide 2 gene expression [2]: 1.15 fold change
AT5G57220 cytochrome P450, family 81, subfamily F, polypeptide 2 gene expression [2]: 1.07 fold change
SMILES: OC[C@H]1O[C@@H](O[C@H]2[C@H](O)[C@@H](O)[C@H](O)O[C@@H]2CO)[C@H](O)[C@@H](O)[C@@H]1O [Cellobiose, β-D-glucopyranosyl(1→4)D-glucopyranose]
changes in expression, number of differentially expressed genes [1]: 440 genes
downregulated genes [1]: 94 genes
upregulated genes [1]: 346 genes
AT1G02360 putative chitinase gene expression [2]: 1.03 fold change
AT1G02920 glutathione S-transferase F7 gene expression [2]: 1.10 fold change
AT1G02930 glutathione S-transferase F6 gene expression [2]: 1.18 fold change
AT1G03220 aspartyl protease-like protein gene expression [2]: 1.08 fold change
AT1G07400 class I heat shock protein gene expression [2]: 2.58 fold change
AT1G11100 SNF2, helicase and zinc-finger domain-containing protein gene expression [2]: 1.70 fold change
AT1G13520 hypothetical protein gene expression [2]: 2.05 fold change
AT1G14540 peroxidase 4 gene expression [2]: 1.22 fold change
AT1G16110 wall associated kinase-like 6 gene expression [2]: 1.46 fold change
AT1G18382 gene expression [2]: 1.39 fold change
AT1G18570 myb domain protein 51 gene expression [2]: 1.46 fold change
AT1G19020 hypothetical protein gene expression [2]: 1.68 fold change
AT1G24145 hypothetical protein gene expression [2]: 1.15 fold change
AT1G27020 hypothetical protein gene expression [2]: 1.06 fold change
AT1G30700 FAD-binding Berberine family protein gene expression [2]: 1.73 fold change
AT1G30755 hypothetical protein gene expression [2]: 1.08 fold change
AT1G36622 hypothetical protein gene expression [2]: 1.62 fold change
AT1G36640 hypothetical protein gene expression [2]: 1.27 fold change
AT1G49000 hypothetical protein gene expression [2]: 1.67 fold change
AT1G51790 leucine-rich repeat protein kinase-like protein gene expression [2]: 1.99 fold change
AT1G51800 putative leucine-rich repeat protein kinase gene expression [2]: 2.44 fold change
AT1G51820 SIF2 gene expression [2]: 6.99 fold change
AT1G51850 Leucine-rich repeat protein kinase family protein gene expression [2]: 4.14 fold change
AT1G51890 probable LRR receptor-like protein kinase gene expression [2]: 1.91 fold change
AT1G51920 hypothetical protein gene expression [2]: 1.55 fold change
AT1G52200 PLAC8 family protein gene expression [2]: 1.57 fold change
AT1G53625 hypothetical protein gene expression [2]: 1.55 fold change
AT1G54050 CIII heat shock protein 17.4 gene expression [2]: 1.36 fold change
AT1G55450 S-adenosyl-L-methionine-dependent methyltransferases superfamily protein gene expression [2]: 1.19 fold change
AT1G59865 hypothetical protein gene expression [2]: 2.57 fold change
AT1G61360 G-type lectin S-receptor-like serine/threonine-protein kinase gene expression [2]: 1.18 fold change
AT1G61560 MLO-like protein 6 gene expression [2]: 1.14 fold change
AT1G64400 long-chain acyl-CoA synthetase gene expression [2]: 1.18 fold change
AT1G65845 hypothetical protein gene expression [2]: 1.99 fold change
AT1G74310 chaperone protein ClpB1 gene expression [2]: 2.87 fold change
AT1G79680 wall-associated receptor kinase-like 10 gene expression [2]: 1.62 fold change
AT2G02010 glutamate decarboxylase 4 gene expression [2]: 1.11 fold change
AT2G15220 basic secretory protein family protein gene expression [2]: 1.08 fold change
AT2G17740 cysteine/histidine-rich C1 domain-containing protein gene expression [2]: 1.04 fold change
AT2G19190 FLG22-induced receptor-like kinase 1 gene expression [2]: 1.38 fold change
AT2G22880 VQ motif-containing protein gene expression [2]: 1.35 fold change
AT2G26150 heat stress transcription factor A-2 gene expression [2]: 2.19 fold change
AT2G26560 phospholipase A 2A gene expression [2]: 2.02 fold change
AT2G27660 cysteine/histidine-rich C1 domain-containing protein gene expression [2]: 1.63 fold change
AT2G29500 HSP20 family protein gene expression [2]: 3.11 fold change
AT2G36220 hypothetical protein gene expression [2]: 1.44 fold change
AT2G36690 2-oxoglutarate (2OG) and Fe(II)-dependent oxygenase superfamily protein gene expression [2]: 1.99 fold change
AT2G38870 PR-6 proteinase inhibitor family protein gene expression [2]: 1.27 fold change
AT2G39200 protein MILDEW RESISTANCE LOCUS O 12 gene expression [2]: 2.09 fold change
AT2G39210 major facilitator protein gene expression [2]: 1.67 fold change
AT2G39518 hypothetical protein gene expression [2]: 2.22 fold change
AT2G43620 chitinase family protein gene expression [2]: 2.15 fold change
AT2G44490 PEN2 gene expression [2]: 1.20 fold change
AT2G46240 BCL-2-associated athanogene 6 gene expression [2]: 2.00 fold change
AT3G08970 J domain protein ATERDJ3A gene expression [2]: 2.46 fold change
AT3G09350 protein Fes1A gene expression [2]: 2.18 fold change
AT3G12580 heat shock protein 70-4 gene expression [2]: 3.24 fold change
AT3G12910 no apical meristem domain-containing transcriptional regulator gene expression [2]: 1.36 fold change
AT3G14200 chaperone DnaJ-domain containing protein gene expression [2]: 2.55 fold change
AT3G15500 ATAF-like NAC-domain transcription factor gene expression [2]: 1.20 fold change
AT3G16030 G-type lectin S-receptor-like serine/threonine-protein kinase CES101 gene expression [2]: 1.47 fold change
AT3G22060 Receptor-like protein kinase-related family protein gene expression [2]: 1.31 fold change
AT3G24500 multiprotein-bridging factor 1c gene expression [2]: 1.75 fold change
AT3G46280 protein kinase-like protein gene expression [2]: 4.51 fold change
AT3G51910 heat stress transcription factor A-7a gene expression [2]: 1.35 fold change
AT3G54420 chitinase class IV gene expression [2]: 1.74 fold change
AT4G01750 rhamnogalacturonan xylosyltransferase 2 gene expression [2]: 2.59 fold change
AT4G11890 receptor-like cytosolic kinase ARCK1 gene expression [2]: 1.75 fold change
AT4G12400 carboxylate clamp-tetratricopeptide repeat protein gene expression [2]: 3.23 fold change
AT4G15233 ABC transporter G family member 42 gene expression [2]: 1.66 fold change
AT4G21120 amino acid transporter 1 gene expression [2]: 1.07 fold change
AT4G22470 protease inhibitor/seed storage/lipid transfer protein (LTP) family protein gene expression [2]: 1.77 fold change
AT4G23220 cysteine-rich receptor-like protein kinase 14 gene expression [2]: 1.69 fold change
AT4G23280 putative cysteine-rich receptor-like protein kinase 20 gene expression [2]: 1.14 fold change
AT4G23570 phosphatase SGT1a gene expression [2]: 2.22 fold change
AT4G25110 metacaspase 2 gene expression [2]: 1.74 fold change
AT4G26200 1-aminocyclopropane-1-carboxylate synthase 7 gene expression [2]: 2.14 fold change
AT4G27280 EF-hand, calcium binding motif-containing protein gene expression [2]: 1.33 fold change
AT4G38550 phospholipase like protein (PEARLI 4) family gene expression [2]: 1.60 fold change
AT5G05300 hypothetical protein gene expression [2]: 1.78 fold change
AT5G10695 hypothetical protein gene expression [2]: 2.27 fold change
AT5G14470 GHMP kinase family protein gene expression [2]: 1.21 fold change
AT5G15870 glycosyl hydrolase family 81 protein gene expression [2]: 1.14 fold change
AT5G19230 GPI-anchored glycoprotein membrane precursor gene expression [2]: 1.24 fold change
AT5G35320 hypothetical protein gene expression [2]: 1.02 fold change
AT5G37600 glutamine synthetase 1; 1 gene expression [2]: 1.56 fold change
AT5G37670 heat shock protein 15.7 gene expression [2]: 1.04 fold change
AT5G39020 putative receptor-like protein kinase gene expression [2]: 1.02 fold change
AT5G39580 peroxidase 62 gene expression [2]: 3.82 fold change
AT5G44070 glutathione gamma-glutamylcysteinyltransferase 1 gene expression [2]: 1.44 fold change
AT5G44585 hypothetical protein gene expression [2]: 2.20 fold change
AT5G44910 Toll-Interleukin-Resistance domain-containing protein gene expression [2]: 1.10 fold change
AT5G46050 peptide transporter 3 gene expression [2]: 1.74 fold change
AT5G48530 hypothetical protein gene expression [2]: 2.07 fold change
AT5G48540 receptor-like protein kinase-related family protein gene expression [2]: 1.85 fold change
AT5G48570 peptidyl-prolyl cis-trans isomerase FKBP65 gene expression [2]: 3.39 fold change
AT5G51440 heat shock protein 23.5 gene expression [2]: 1.36 fold change
AT5G52640 heat shock protein 90.1 gene expression [2]: 3.70 fold change
AT5G62020 heat stress transcription factor B-2a gene expression [2]: 1.00 fold change
AT5G64120 peroxidase 71 gene expression [2]: 1.42 fold change
AT5G67450 zinc-finger protein 1 gene expression [2]: 1.44 fold change
MYB51 (AT1G18570) Expression (100 μM, 1 h, microarray): 1.46 Fold change (treatment/CTR)
MYB73 (AT4G37260) Expression (100 μM, 1 h, microarray): 1.06 Fold change (treatment/CTR)
NAC047 (AT3G04070) Expression (100 μM, 1 h, microarray): 1.81 Fold change (treatment/CTR)
NAC055 (AT3G15500) Expression (100 μM, 1 h, microarray): 1.20 Fold change (treatment/CTR)
NAC057 (AT3G17730) Expression (100 μM, 1 h, microarray): 1.40 Fold change (treatment/CTR)
NAC058 (AT3G18400) Expression (100 μM, 1 h, microarray): 1.41 Fold change (treatment/CTR)
NAC078 (AT5G04410) Expression (100 μM, 1 h, microarray): 1.31 Fold change (treatment/CTR)
Target of MYB protein 1 (AT1G76970) Expression (100 μM, 1 h, microarray): 1.64 Fold change (treatment/CTR)
WRKY11 (AT4G31550) Expression (100 μM, 1 h, microarray): 1.95 Fold change (treatment/CTR)
WRKY15 (AT2G23320) Expression (100 μM, 1 h, microarray): −1.06 Fold change (treatment/CTR)
WRKY18 (AT4G31800) Expression (100 μM, 1 h, microarray): 4.02 Fold change (treatment/CTR)
WRKY22 (AT4G01250) Expression (100 μM, 1 h, microarray): 2.34 Fold change (treatment/CTR)
WRKY30 (AT5G24110) Expression (100 μM, 1 h, microarray): 1.30 Fold change (treatment/CTR)
WRKY33 (AT2G38470) Expression (100 μM, 1 h, microarray): 1.33 Fold change (treatment/CTR)
WRKY40 (AT1G80840) Expression (100 μM, 1 h, microarray): −1.05 Fold change (treatment/CTR)
WRKY61 (AT1G18860) Expression (100 μM, 1 h, microarray): −1.05 Fold change (treatment/CTR)
WRKY72 (AT5G15130) Expression (100 μM, 1 h, microarray): 1.41 Fold change (treatment/CTR)
LOX4 (AT1G72520) gene expression, Microarray (vs CTR): 1.68 fold change
MPK3 (AT3G45640) gene expression, Microarray (vs CTR): 1.22 fold change
MPK6 (AT2G43790) gene expression, Microarray (vs CTR): −1.06 fold change
PAD3 (AT3G26830) gene expression, Microarray (vs CTR): −1.04 fold change
PEN3 (AT1G59870) gene expression, Microarray (vs CTR): 1.55 fold change
PR1 (AT2G14610) gene expression, Microarray (vs CTR): 1.91 fold change
WRKY18 (AT4G31800) gene expression, Microarray (vs CTR): 4.02 fold change
WRKY22 (AT4G01250) gene expression, Microarray (vs CTR): 2.34 fold change
WRKY33 (AT2G38470) gene expression, Microarray (vs CTR): 1.33 fold change
IGMT2 (At1G21120) gene expression, Microarray (vs mock): −1.14 fold change
